{"source": "patent US20250195431A1", "about": "“LIPID NANOPARTICLES FOR TARGETED DELIVERY OF MRNA” (Trustees of Tufts College, priority 2022, published 2025)", "key": {"IFN-γ-secreting T cells": {"test_system": "IFN-γ-secreting T cells", "assay": "T cell response by ELISPOT after two doses of spike mRNA/LNP", "design": "species or system mice", "details": "mouse, in vivo"}, "IgG anti-spike antibody": {"test_system": "IgG anti-spike antibody", "type": "in vivo", "details": "mice, I.M., two doses"}, "[1]": {"test_system": "Firefly luciferase expression", "assay": "In vivo optimization of Lipid 88 formulations, intramuscular (I.M.) administration, bioluminescence", "design": "species or system mice", "details": "mouse", "description": "Various formulations of mRNA/LNPs comprising lipid 88 were tested in vivo, including a plurality of ratios of ionizable lipids to helper lipids, and ratios of RNA to lipids. […] The luc mRNA/LNPs were then given to both adult and neonatal mice via various routes of administration (e.g., intravenously, intramuscularly, or through facial vein). After a period of time post injection (e.g., 6-80 hours), substrates of luciferase were administered to the animals and whole-body imaging was performed using IVIS imaging system."}, "Exon 6 of Angltl 3": {"test_system": "Exon 6 of Angltl 3", "assay": "Base editing with mRNA encoding ABE8e and sgRNA_SA or sgRNA_SD using lipids (306O12B, L88 and L10)", "details": "among 306O12B"}, "Angptl3": {"test_system": "Angptl3", "assay": "ABE8e mRNA/sgRNA/LNPs injected to rodents: base editing and serum biomarkers", "details": "in vivo", "description": "Significance measured with one way ANOVA. *P<0.05 **P<0.01 ***P<0.001 ****P<0.0001.\nBlood taken on day 7. […] Significance measured with one way ANOVA *P<0.05 **P<0.01 ***P<0.001 ****P<0.0001.\nSignificance measured by one-way ANOVA.\nNext LNPs (e.g., ABE8e mRNA/sgRNA/LNPs comprising lipid 88) were injected to rodents. In some cases, one dose of 3 mg/kg LNPs was administered. In some cases, 2 doses of 3 mg/kg LNPs were administered 48 hours apart. […] Significance measured with one way ANOVA. *P<0.05 **P<0.01 ***P<0.001 ****P<0.0001. Seven days post administration of the LNPs, blood samples were collected from treated animals, and various biomarkers were measured, including Angptl3, cholesterol, triglyceride, ALT, AST, and IL-6. […] Significance measured with one way ANOVA *P<0.05 **P<0.01 ***P<0.001 ****P<0.0001. […] Significance measured with one way ANOVA *P<0.05 **P<0.01 ***P<0.001 ****P<0.0001. […] Significance measured by one-way ANOVA. […] Significance measured by one-way ANOVA."}}, "data": [{"smiles": "CCCCCCCCSSCCOC(=O)CCN(CCCN(C)CCCN(CCC(=O)OCC(CC)CCCC)CCC(=O)OCC(CC)CCCC)CCC(=O)OCC(CC)CCCC", "note": "(stereo not drawn) [Lipid 65]", "values": [{"measurement": "T cell response (ELISPOT), comparison of LNPs", "setting": "IFN-γ-secreting T cells", "result": "highest T cell response"}]}, {"smiles": "CCCCCCC(CCCC)COC(=O)OCCOC(=O)CCN(CCCN(C)CCCN(CCC(=O)OCCOC(=O)OCC(CCCC)CCCCCC)CCC(=O)OCCOC(=O)OCC(CCCC)CCCCCC)CCC(=O)OCCOC(=O)OCC(CCCC)CCCCCC", "note": "(stereo not drawn) [Lipid 88]", "values": [{"measurement": "anti-spike IgG titer (ELISA), comparison of LNPs", "setting": "IgG anti-spike antibody", "result": "highest anti-spike IgG titer"}, {"measurement": "delivery of luc mRNA (bioluminescence over time)", "setting": "[1]", "result": "enhanced delivery of luc mRNA to the mice compared with LNPs formulated with 113O12B"}, {"measurement": "transfection and editing efficiency", "setting": "Exon 6 of Angltl 3", "result": "~60", "unit": "%"}, {"measurement": "percent of base editing, single dose vs double dose", "setting": "Angptl3", "result": "maximal editing was reached with single dose"}, {"measurement": "T cell response (ELISPOT), comparison of LNPs", "setting": "IFN-γ-secreting T cells", "result": "highest T cell response"}]}]}
